One series has as its system A549 cells. The series is described as follows: cells. The class given is cell-based. Particulars: for IC50: Homo sapiens.
The next series addresses MRP1 (Homo sapiens, UniProt P33527). The series is described as follows: cell-based.
The nature of the next series: in vitro. Particulars: human, IC50 etoposide-induced growth inhibition.
The next series deals with HEK control cells. The series is described as follows: cells. Particulars: Homo sapiens. The class given is cell-based.
Setting [1] is: A549, read-out: IC50 growth inhibition, co-treatment with 10 nM HN2.
Setting [2] is: A549, read-out: IC50 growth inhibition, drug alone.

The source of these data is patent US10786542B2 (priority 2016, dated 2020).

SMILES strings stand for the structures. Like-named read-outs stand apart in the source and are kept apart here.

Chain of MRP1 (P33527 whole entry): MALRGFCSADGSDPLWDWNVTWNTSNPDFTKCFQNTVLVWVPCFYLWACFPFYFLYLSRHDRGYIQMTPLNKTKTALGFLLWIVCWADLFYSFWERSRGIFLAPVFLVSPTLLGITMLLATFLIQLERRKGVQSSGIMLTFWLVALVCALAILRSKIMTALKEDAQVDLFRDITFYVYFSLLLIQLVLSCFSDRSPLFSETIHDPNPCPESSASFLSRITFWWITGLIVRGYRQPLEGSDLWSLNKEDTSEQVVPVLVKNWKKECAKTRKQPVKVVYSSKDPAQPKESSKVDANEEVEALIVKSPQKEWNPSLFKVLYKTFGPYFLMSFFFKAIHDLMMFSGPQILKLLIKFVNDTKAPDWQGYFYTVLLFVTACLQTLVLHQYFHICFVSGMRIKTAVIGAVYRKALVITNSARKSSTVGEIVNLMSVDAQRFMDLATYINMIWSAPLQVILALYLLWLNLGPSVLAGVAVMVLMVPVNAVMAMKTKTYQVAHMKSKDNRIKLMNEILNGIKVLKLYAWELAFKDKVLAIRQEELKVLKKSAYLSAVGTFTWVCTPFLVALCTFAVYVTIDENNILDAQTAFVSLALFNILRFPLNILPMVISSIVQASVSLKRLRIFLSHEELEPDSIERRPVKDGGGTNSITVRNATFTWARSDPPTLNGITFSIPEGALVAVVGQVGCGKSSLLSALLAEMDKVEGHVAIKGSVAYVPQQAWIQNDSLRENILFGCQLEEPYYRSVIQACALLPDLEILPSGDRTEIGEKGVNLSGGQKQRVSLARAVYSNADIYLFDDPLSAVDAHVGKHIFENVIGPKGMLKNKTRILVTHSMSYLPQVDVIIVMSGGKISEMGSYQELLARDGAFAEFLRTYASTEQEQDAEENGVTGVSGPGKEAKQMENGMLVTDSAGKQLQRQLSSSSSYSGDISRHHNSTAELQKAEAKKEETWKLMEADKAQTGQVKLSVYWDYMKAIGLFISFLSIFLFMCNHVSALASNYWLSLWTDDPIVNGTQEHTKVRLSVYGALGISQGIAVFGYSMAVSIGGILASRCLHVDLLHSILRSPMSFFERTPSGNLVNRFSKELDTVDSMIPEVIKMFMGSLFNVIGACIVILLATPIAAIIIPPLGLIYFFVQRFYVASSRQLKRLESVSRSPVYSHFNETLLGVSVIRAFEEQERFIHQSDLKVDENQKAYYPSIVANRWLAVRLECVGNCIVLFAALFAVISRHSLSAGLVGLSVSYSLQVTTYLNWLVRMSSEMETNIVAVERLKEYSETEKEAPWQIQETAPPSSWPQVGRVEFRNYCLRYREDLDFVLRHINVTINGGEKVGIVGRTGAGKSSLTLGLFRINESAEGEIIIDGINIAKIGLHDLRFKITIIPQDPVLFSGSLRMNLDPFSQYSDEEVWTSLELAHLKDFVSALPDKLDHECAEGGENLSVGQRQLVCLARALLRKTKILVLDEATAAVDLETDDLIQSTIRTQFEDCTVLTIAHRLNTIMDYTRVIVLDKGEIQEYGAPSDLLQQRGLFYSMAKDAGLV

In the case of `CN(C)C(=O)CCSC(SCCC(=O)O)c1cccc(/C=C/c2ccc3ccc(Cl)cc3n2)c1` (stereo not drawn) [MK-571], in the series on A549 cells, the “Increase in sensitivity to MRP1 substrate drugs” value was “six-fold”.

Usually IC50 stands for the midpoint of a concentration-inhibition curve. Regarding `CN(Cc1cnc2nc(N)nc(N)c2n1)c1ccc(C(=O)N[C@@H](CCC(=O)O)C(=O)O)cc1` [Methotrexate, methotrexate], the IC50 amounted to 48 nM with A549 cells (setting [1]) and 230 nM with A549 cells (setting [2]).

As for `CC[C@]1(O)C[C@H]2CN(CCc3c([nH]c4ccccc34)[C@@](C(=O)OC)(c3cc4c(cc3OC)N(C=O)[C@H]3[C@@](O)(C(=O)OC)[C@H](OC(C)=O)[C@]5(CC)C=CCN6CC[C@]43[C@@H]65)C2)C1` [Vincristine, vincristine], the IC50 was determined as 45 nM with A549 cells (setting [1]) and 360 nM in the series with A549 cells (setting [2]).

In the case of `CCOC(=O)C#CC(=O)OCC` [diethyl acetylenedicarboxylate], half-maximal inhibition against MRP1 (IC50) was put at 6 nM.

Turning to `COc1cc([C@@H]2c3cc4c(cc3[C@@H](O[C@@H]3O[C@@H]5CO[C@@H](C)O[C@H]5[C@H](O)[C@H]3O)[C@H]3COC(=O)[C@H]23)OCO4)cc(OC)c1O` [etoposide], the IC50 in “in vitro” (co-treated with 10 nM HN2) came to 42 nM; in the series “in vitro” (etoposide alone), 960 nM; with A549 cells (setting [1]) it was 75 nM; in the series with A549 cells (setting [2]), 1000 nM; with HEK control cells (read-out: IC50 etoposide-induced growth inhibition, co-treatment with 3 nM HN2), 47 nM; in the series on HEK control cells (read-out: IC50 etoposide-induced growth inhibition, etoposide alone), 55 nM.
